Experiment [1] deals with Cellular tumor antigen p53 (Homo sapiens) (UniProt P04637). Briefly: Inhibition of human p53 expressed in Saccharomyces cerevisiae CG379 assessed as effect on cell cycle arrest at 1 to 100 uM after 42 hrs.
For experiment [2], the system named is Cellular tumor antigen p53 (Homo sapiens), P04637 [R280K]. Briefly: Inhibition of human p53 R280K mutant expressed in Saccharomyces cerevisiae CG379 assessed as effect on cell growth at 10 uM after 31 hrs.
Experiment [3] deals with Cellular tumor antigen p53 (Homo sapiens) (UniProt P04637). Briefly: Inhibition of human p53 expressed in Saccharomyces cerevisiae CG379 assessed as effect on cell growth at 1 to 100 uM after 42 hrs.
Experiment [4] addresses E3 ubiquitin-protein ligase Mdm2 (Homo sapiens) (UniProt Q00987). Briefly: Inhibition of human MDM2 expressed in Saccharomyces cerevisiae CG379 assessed as effect on cell cycle arrest at 1 to 100 uM after 42 hrs.

Inhibition data for 2 compounds are collected here from ChEMBL document CHEMBL2331232, “Α-mangostin and gambogic acid as potential inhibitors of the p53-MDM2 interaction revealed by a yeast approach” (J Nat Prod, 2013).

Calls of active or inactive are those of the source. The rule behind the calls is not given here.

Chain of Cellular tumor antigen p53 (Homo sapiens) (P04637 whole entry, looked up): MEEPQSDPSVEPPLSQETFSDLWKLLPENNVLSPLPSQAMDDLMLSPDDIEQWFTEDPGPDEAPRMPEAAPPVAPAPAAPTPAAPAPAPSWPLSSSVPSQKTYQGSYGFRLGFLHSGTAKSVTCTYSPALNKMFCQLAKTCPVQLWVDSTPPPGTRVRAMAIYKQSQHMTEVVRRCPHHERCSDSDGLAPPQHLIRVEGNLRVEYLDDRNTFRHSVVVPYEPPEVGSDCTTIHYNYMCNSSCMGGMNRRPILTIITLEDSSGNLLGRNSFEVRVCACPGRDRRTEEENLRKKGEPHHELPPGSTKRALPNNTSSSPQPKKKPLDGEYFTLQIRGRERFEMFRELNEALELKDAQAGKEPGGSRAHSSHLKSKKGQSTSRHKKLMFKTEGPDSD
Chain of E3 ubiquitin-protein ligase Mdm2 (Homo sapiens) (Q00987 whole entry, looked up): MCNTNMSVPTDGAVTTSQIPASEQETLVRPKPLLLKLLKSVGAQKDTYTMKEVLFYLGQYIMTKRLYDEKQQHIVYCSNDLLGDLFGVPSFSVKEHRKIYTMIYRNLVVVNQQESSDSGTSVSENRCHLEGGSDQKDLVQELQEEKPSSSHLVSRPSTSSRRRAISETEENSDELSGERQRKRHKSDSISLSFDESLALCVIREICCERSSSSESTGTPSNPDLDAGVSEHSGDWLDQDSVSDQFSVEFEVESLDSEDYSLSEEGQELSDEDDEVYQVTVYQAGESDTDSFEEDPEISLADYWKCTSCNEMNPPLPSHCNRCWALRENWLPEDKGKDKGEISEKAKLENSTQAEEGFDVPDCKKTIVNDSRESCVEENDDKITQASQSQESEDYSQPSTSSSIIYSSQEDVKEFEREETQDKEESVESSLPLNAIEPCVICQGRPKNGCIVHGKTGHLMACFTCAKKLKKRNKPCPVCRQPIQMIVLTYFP

As to `COc1c(O)cc2oc3cc(O)c(CC=C(C)C)c(O)c3c(=O)c2c1CC=C(C)C`, the inhibition entry in experiment [1], in experiment [2], in experiment [3] and in experiment [4] was “inactive” each time.

For `CC(C)=CCC[C@]1(C)C=Cc2c(O)c3c(c(CC=C(C)C)c2O1)O[C@]12C(=C[C@@H]4C[C@H]1C(C)(C)O[C@@]2(C/C=C(/C)C(=O)O)C4=O)C3=O`, the inhibition result in experiment [1], in experiment [2] and in experiment [3] was “inactive” each time. The inhibition entry in experiment [4] was “Active”.
